In patent EP0398925B1, “GROWTH INHIBITING AGENT AND THE USE THEREOF” (CHILDREN'S HOSPITAL CORPORATION, priority 1988, dated 1989):

Assays:
[1] = system: chorioallantoic membrane of the chick embryo; assay: CAM assay: avascular zone around a methylcellulose disc holding the test substance; type: in vivo; details: for angiogenesis-inhibition: 100 µg of cyclodextrin with 50 µg of hydrocortisone, no successes at (+) or (++) level; for angiogenesis suppression activity: unmodified CDs with hydrocortisone (Examples 18-20)
Description: A more economic bioassay makes use of the chorioallantoic membrane of the chick embryo. This test will for convenience be referred to hereinafter as the "CAM assay". For a more detailed description of the CAM assay, see Folkman et al., Science 221:719 (1983). A typical CAM assay, such as used for the evaluations in the examples in Section 7, infra, employs 16 eggs per experiment. A 2 mm diameter disk of methylcellulose containing the test substance is applied to the chorioallantoic membrane of a 6-day chick embryo, cultured in a Petri dish, in a humidified incubator with 3% carbon dioxide. Two days later (8-day embryo), the membrane is examined under a stereomicroscope at six- to ten-fold magnification. Inhibition of angiogenesis by the test substance is evidenced by the development of an avascular zone around the methylcellulose disc. An avascular zone of 4 mm is graded as (++) and an avascular zone of 2 mm is graded as (+). […] A rating of zero % reflects absence of inhibition or the test substance under the test conditions.
The sustained release methylcellulose discs are prepared by dispersing appropriate amount(s) of the test substance of substances in an 0.45% aqueous solution of methylcellulose, and depositing 10 microliter aliquots of the resulting solution in a Teflon mold, followed by air drying for about one hour in a laminar flow hood.

[2] = system: rabbit cornea; assay: Rabbit cornea test, endotoxin Elvax implant, test substance given in a second Elvax implant; type: in vivo; details: day 13, Elvax pellet with β-CD-TDS 15 µg/mm³ and/or cortexolone 30 µg/mm³, over 100% = stimulation; for Vessel Density, Inhibition (% of Untreated Control Group): length-density index
Description: In another series of experiments, the antiangiogenic activity of a water-soluble cyclodextrin salt derivative in combination with cortexolone was evaluated using the rabbit cornea test as described by Gimbrone et al., J. Nat'l Cancer Inst. 52:413 (1974). In these experiments, E. coli endotoxin (17 µg/mm³) incorporated into sustained release polymer pellets of ethylene vinylacetate copolymer [Elvax, Sigma Chemical, St. Louis, MO (hereinafter "Elvax")] was implanted between the vascular limbal edge of the rabbit corneas. The test substance(s) were administered by means of a second Elvax implant incorporating the particular test substance.
Elvax containing endotoxin was implanted into the corneas of 12 rabbits. The animals were then divided into 4 groups and 4 eyes were treated for each group as follows: Group 1, received no further treatment and served as the control group; Group 2, β-CD-TDS at 15 µg/mm³ Elvax pellet; Group 3, cortexolone at 30 µg/mm³ Elvax pellet; and Group 4, a combination of β-CD-TDS and cortexolone incorporated into an Elvax pellat at a final concentration of 15 µg/mm³ Elvax of β-CD-TDS and 30 µg/mm³ Elvax of cortexolone. The vessel length of new capillary growth was measured every 2 days with a slit-lamp stereoscope at 10X using an ocular grid calibrated to ± 0.1 mm.
Thus, the vessel density was also evaluated and graded using the following scale: O=no vessels/cornea; 1=1-4 vessels/cornea; 2=5-20 vessels/cornea; 3=20-50 vessels/cornea; and 4=more than 50 vessels/cornea. This grade was then multiplied by mean maximal length of the vessels to obtain a semi-quantitative estimate of vessel density (length-density index) for each cornea.

[3] = system: rabbit cornea; assay: Rabbit corneal test, endotoxin implant, test substance applied topically as eye drops; type: in vivo; details: eye drops in saline; 9th day; hydrocortisone 0.5 mg/ml, β-CD-TDS 1.0 mg/ml (combination uses hydrocortisone-21-phosphate)
Description: The rabbit corneal test described by Perlin, Fed. Proc. 36:101 (1977) modified as described below, was employed to examine the effectiveness of a combination of β-CD-TDS and hydrocortisone In this corneal test, a sustained release polymer impregnated with bacterial endotoxin was first implanted in rabbit corneas. Endotoxin slowly released from this implant induces angiogenesis in the cornea in a manner analogous to the neovascularization observed in patients rejecting a corneal transplant. Rather than employing a second implant containing the test substance to deliver such test substance as generally used, in the present experiments the test substance was applied topically to the cornea, i.e., in the form of eye drops. Animals having received an endotoxin-containing implant were divided into four groups and were treated by topical application (eye drops) as follows: Group 1, was not treated further and served as the control group; Group 2, received hydrocortisone alone (0.5 mg/ml); Group 3, hydrocortisone-21-phosphate and β-CD-TDS, (0.5 mg/ml and 1.0 mg/ml, respectively); and Group 4, β-CD-TDS (1.0 mg/ml). The diluent for the eye drops was saline in all cases. FIG. 3 (A-D) illustrates the results typically obtained on the 9th day post-implantation and treatment.

[4] = Solubility in liquid water at zero °C; type: physicochemical
Description: The CD derivatives useful in the present invention are highly hydrophilic and therefore very water soluble. Without wishing to be bound by theory, we believe that a highly hydrophilic character is important to allow interaction with cellular surfaces. We also believe a very high water solubility of the derivative is an important factor which cooperatively interacts with the inherent complexing ability of the CD structure to provide effective inhibition of angiogenesis with an exogenous steroid, as provided by this invention. We believe that the hydrophlilic activity is roughly indicated by the affinity to water, as measured by water solubility. It is important to measure the same at 0°C since at higher temperatures the most suitable derivative have solubilities so high that meaningful measurements are difficult. […] All solubility measurements referred to herein relate to the solubility of the substantially anhydrous derivatives, and when these are salts, to the anhydrous sodium form. […] In order to make comparisons that included the very water-soluble CD sulfates, the solubilities of which were so high at room temperature that measurement was not practical, all solubility measurements were made in liquid water at zero °C. One can picture this to be a measure of the competition of the hydrophile bonding with water in relation to the orderly bonding of water to itself.

[5] = system: calf aortic SMC; assay: Suppression of smooth muscle cell growth in tissue culture; type: cell-based; details: each used alone, 0.03 µg/ml up to 400 µg/ml
Description: (§1) The bioassay of this activity was made using tissue cultures of rat aortic SMC and calf aortic SMC, with dosages ranging from 0.03 µg/ml up to 400 µg/ml.

[6] = system: rat aortic SMC; assay: as above; type: cell-based; details: each used alone, 0.03 µg/ml up to 400 µg/ml
Description: as §1

[7] = compound 25 µg/10 µl with 50 µg to 60 µg of hydrocortisone in 10 µl of 0.45% methylcellulose
[8] = compound 100 µg/10 µl with 50 µg to 60 µg of hydrocortisone in 10 µl of 0.45% methylcellulose
[9] = 25 µg/10 µl of β-CD-TDS with Cortexolone 50 µl/10 µl

O=C(O)[C@@H]1CCN1 [(a) L-2-Azetidine, L-2-azetidinecarboxylic acid]
% Avascular zones ([1]; L-2-Azetidine 400 ug/10 µl, (a) 0 µg CD-TDS, (b) 25 µg CD-TDS): 28%

C[C@]12CCC(=O)C=C1CC[C@@H]1[C@@H]2CC[C@@]2(C)[C@H]1CC[C@]2(O)C(=O)CO [Cortexolone, 17 alpha, 21-dihydroxypregn-4-ene-3,20-dione]
% Avascular zones ([1]; Cortexolone alone, 50 µl/10 µl): zero | Vessel Length, Inhibition (% of Untreated Control Group) [2]: 49% | Vessel Length, Inhibition (% of Untreated Control Group) ([2]; listed as cortexolone): about 49% | Vessel Density, Inhibition (% of Untreated Control Group) [2]: 61% | Vessel Density, Inhibition (% of Untreated Control Group) ([2]; listed as cortexolone): about 61%

C[C@]12CCC(=O)C=C1CC[C@@H]1[C@@H]2[C@@H](O)C[C@@]2(C)[C@H]1CC[C@]2(O)C(=O)CO [hydrocortisone, 11 beta, 17 alpha, 21-trihydroxypregn-4-ene-3,20-dione]
effect on endotoxin-induced angiogenesis in the cornea [3]: only a slight inhibition of angiogenesis

OC[C@H]1O[C@@H]2O[C@H]3[C@H](O)[C@@H](O)[C@@H](O[C@H]4[C@H](O)[C@@H](O)[C@@H](O[C@H]5[C@H](O)[C@@H](O)[C@@H](O[C@H]6[C@H](O)[C@@H](O)[C@@H](O[C@H]7[C@H](O)[C@@H](O)[C@@H](O[C@H]8[C@H](O)[C@@H](O)[C@@H](O[C@H]1[C@H](O)[C@H]2O)O[C@@H]8CO)O[C@@H]7CO)O[C@@H]6CO)O[C@@H]5CO)O[C@@H]4CO)O[C@@H]3CO [β-CD, β-cyclodextrin]
angiogenesis-inhibition [1]: total absence of angiogenesis-inhibition | % Avascular zones [1, 7]: 0.04% | % Avascular zones [1, 8]: 0% | angiogenesis suppression activity [1]: no indication of angiogenesis suppression activity

α-cyclodextrin [α-CD]
angiogenesis-inhibition [1]: total absence of angiogenesis-inhibition | % Avascular zones [1, 7]: 0% | % Avascular zones [1, 8]: 5± 0.3% | angiogenesis suppression activity [1]: no indication of angiogenesis suppression activity | Solubility 0°C, g/100 ml H₂O [4]: 6 g/100 ml H₂O

β-cyclodextrin tetradeca sulfate [β-CD-TDS]
% Avascular zones [1, 9]: 85% | % avascular zones (++) or greater [1, 9]: 31% | % Avascular zones [1, 7]: 58± 7.0% | % Avascular zones ([1]; compound 50 µg/10 µl with 50 µg to 60 µg of hydrocortisone in 10 µl of 0.45% methylcellulose): 75± 5.8% | % Avascular zones [1, 8]: 55± 7.5% | effectiveness relative to whole heparin in suppressing smooth muscle cell (SMC) growth [5]: about three | effectiveness relative to whole heparin in suppressing smooth muscle cell (SMC) growth [6]: about three | Solubility 0°C, g/100 ml H₂O [4]: 42 g/100 ml H₂O | effect on endotoxin-induced angiogenesis in the cornea [3]: slight stimulation of angiogenesis

γ-cyclodextrin [γ-CD]
angiogenesis-inhibition [1]: total absence of angiogenesis-inhibition | % Avascular zones [1, 8]: 0% | angiogenesis suppression activity [1]: no indication of angiogenesis suppression activity
